Structures are written as SMILES.

Here are results for one compound from US20050112198A1, “Bupropion formulation for sustained delivery” (priority 2003, published 2005).

Data set [1] is described as follows: In-house drug-excipient compatibility / storage stability of bupropion hydrochloride. To be noted: for degradation of active drug in drug-excipient mixtures: 50° C./75% RH and 40° C./75% RH. It is filed as physicochemical. The method, then:
In order to study the compatibility of various excipients used in the proposed invention with bupropion hydrochloride, various drug-excipient mixtures were prepared. The each excipient amount relative to drug varied from 1:1 to 1:10. […] As predicted with the active drug, it has been observed during their analysis at various time intervals by liquid chromatography that most of the excipients studied are causing degradation of the active drug with a result of two distinct degradation peaks, in which all cellulose based excipients considered to be interacting uniquely with the pure drug compared to non-cellulose based excipients. […] The above changes were more pronounced in samples studied under open conditions compared to closed condition samples. […] Such degradation could be due to impurities like peroxide, heavy metals and bleaching agents present in such materials. Even though such impurities are present within acceptable limits, the moisture content carried in them should have acted as solvent to aggravate such reactions. […] The package component seems to play a vital role for stabilizing the dosage form: high-density polyethylene (HDPE) containers with additional thickness/weight are preferred apart from maintaining sufficient quantity of adsorbent added to the packaging system to minimize moisture and oxygen/odor levels.

The conditions of data set [2]: crystalline solid; cited from earlier work.

Regarding `CC(NC(C)(C)C)C(=O)c1cccc(Cl)c1.Cl` (racemic) [Bupropion hydrochloride, (±)-1-(3-chlorophenyl)-2-[(1,1-dimethylethyl)amino]-1-propanone hydrochloride], in data set [1] (in-house studies, normal storage conditions, without excipients), the “stability of the salt form alone” value is on record as “stable in normal storage conditions”. Also, the “degradation of active drug in drug-excipient mixtures” value is on record as “minimum amount or no change” in data set [1] (mixtures with Kollidon VA64, Kollidon SR, methylcellulose, colloidal silicon dioxide, magnesium stearate, enteric coating materials); “rapid degradation” in data set [1] (mixtures with hydroxypropyl cellulose, polyethylene oxide and sodium carboxymethyl cellulose, 1:1 to 1:10, liquid chromatography). For the same compound, the water solubility entry in data set [2] was “water soluble”.
